Assays:
rice callus cells = test: CLSM observation of intracellular uptake and distribution of Citrine after vacuum/pressure infiltration; assay type: cell-based, Oryza sativa, cv. Nipponbare; details: for distribution of Citrine in callus cell: 5-day callus cell, 72-hours incubation, FM 4-64 stain, 3D images and optical sections
Method: Mature dry seeds of Oryza sativa, cv. Nipponbare (O. sativa) were surface-sterilized with 70% ethanol (v/v) for 1 min, followed by 30 min in 50% (v/v) commercial bleach with rotation at 20 rpm. Seeds were then washed 8-10 times with sterile distilled water and dried on autoclaved Kimwipes (3 mm) for 5 min. For callus induction, sixteen seeds were inoculated petri plate on callus induction medium (N6D) and incubated at 30° C. with continuous light in a plant bio-incubator (TOMY CLE-303 cultivation chamber Tokyo, Japan). N6D was prepared using basal 30 g/L […], 0.3 g/L casamino acid, 2.8 g/L L-proline, 2 mg/L 2,4-dichlorophenoxyacetic acid (2,4-D), 4.0 g/L CHO (N6) basal salt mix, gelled with 4 g/L phytagel and pH adjusted to 5.8 before autoclaving. After 5-day cultivation, the callus was cut into approximately four equal parts. This callus was used as the 5-day callus in this work. On the other hand, after 21-day cultivation, the self-shedding callus was collected and used as the 21-day callus. For the callus regeneration test, the callus was cut to small pieces in different sizes, then transferred onto a regeneration medium and incubated at 30° C. with continuous light for 7 days. […] The regeneration medium was prepared based on using 4 g/L MS powder with vitamin, supplied with 30 g/L sorbitol, 30 g/L sucrose, 4 g/L casamino acid, 2 mg/L 2,4-D and 2 mg/L 1-Naphthaleneacetic acid (NAA), gelled with 4 g/L phytagel and pH was adjusted to 5.8 before autoclaving. The chemicals used in this research are purchased from Sigma (Sigma-Aldrich, MO, USA) and Wako (Wako, Pure Chemical, Tokyo, Japan).
(§1) 10 mg rice callus (5-day or 21-day) was immersed in 100 μL of fresh prepared complex solutions in a screw cap tube. Subsequently depressurized the solution at −0.08 MPa for 1 min and compressed at +0.08 MPa for 1 min. After this treatment, the callus was transferred onto the N6D medium, and incubated at 30° C. in the dark until use.
Confocal laser scanning microscopy (CLSM, ZeissLSM 700, Carl Zeiss, Oberkochen, Germany) was used to evaluate the intracellular uptake of CPP-FP-Citrine every 24 hours. Before the observation by CLSM, the callus on N6D was transferred into a 1.5 mL Eppendorf tube and washed thoroughly with Milli-q water contains 0.1% tween 20 for five times to remove the Citrine on cell surface. Thereafter, the callus was cut into tiny pieces and mounted on glass slides, then covered with coverslips. CPP-FP-Citrine was detected by setting the excitation at 488 nm and emission in a range of 505-600 nm. For distinguish plasma membrane region and cytoplasm region, the callus was additionally incubated with FM4-64 (20 µM, 20 min at RT) for cell membrane stain, and detected by setting the excitation at 405 nm and emission at 560-700. Furthermore, quantification of the intracellular Citrine by western blot immunoassay. After 72-hour post-infiltration, the protein was extracted from rice callus. The rice callus was frozen with liquid nitrogen, and then grinding in a mortar into powder. 50 μl of 10 mM Tris-HCL buffer (pH 7.4) containing 10 μL Halt protease inhibitor cocktail (Thermo Scientific, MA, USA) was added to 0.1 g callus powder, mixed well and incubated on ice for 1 hour. After centrifuge at […], 4° C. for 20 min, the supernatant was collected and used as the cell extraction. 10 μL of the cell extraction was subjected to a 4-20% sodium dodecyl sulfate polyacrylamide electrophoresis gels (SDS-PAGE, Bio-Rad, California, USA). Proteins were then transferred onto a PVDF membranes (Bio-Rad, California, USA) using a semi-dry transfer cell (Bio-Rad, California, USA) at 10 V for 1 hour. The immunodetection of Citrine was performed with a rabbit polyclonal antibody (GFP antibody NB600-308, Novus Biologicals, Co, USA, dilution to 1:2000). IgG goat anti-rabbit antibody conjugated with horse radish peroxidase was used as a secondary antibody (goat anti-rabbit IgG H&L HRP ab6789, Abcam, Cambridge, UK, dilution to 1:20000). […]

5-day callus cell = test: Western blot quantification of Citrine extracted from rice callus; assay type: cell-based, Oryza sativa, cv. Nipponbare; details: 72-hour post-infiltration, with vacuum and pressure treatment, area intensity compared with positive control
Method: as §1
Confocal laser scanning microscopy (CLSM, ZeissLSM 700, Carl Zeiss, Oberkochen, Germany) was used to evaluate the intracellular uptake of CPP-FP-Citrine every 24 hours. Before the observation by CLSM, the callus on N6D was transferred into a 1.5 mL Eppendorf tube and washed thoroughly with Milli-q water contains 0.1% tween 20 for five times to remove the Citrine on cell surface. […] CPP-FP-Citrine was detected by setting the excitation at 488 nm and emission in a range of 505-600 nm. For distinguish plasma membrane region and cytoplasm region, the callus was additionally incubated with FM4-64 (20 µM, 20 min at RT) for cell membrane stain, and detected by setting the excitation at 405 nm and emission at 560-700. Furthermore, quantification of the intracellular Citrine by western blot immunoassay. […]
We next quantified the Citrine from the cell extraction by western blot. […] As controls, the samples with infiltration of Milli-q water and Citrine only without vacuum and pressure treatment were also analyzed (FIG. 7a). […]

[1] = Secondary structure contents of peptides (DichroWeb analysis); assay type: physicochemical; details: various solvents, reducing or non-reducing conditions
Method: FIG. 20: Secondary structure contents of BPCH7, BPLH7, and BPKH in various solvents (reducing or non-reducing conditions). Analysis was performed using DichroWeb (CONTIN, dataset 4).

rice cells = test: Delivery of DNA into rice cells by linear versus cyclic peptide; assay type: cell-based
Method: BP2 is a cyclic peptide due to its disulphide bond between the two cysteins. This structure improve binding to proteins, peptides and DNA and improves cell survival (reduced cell toxicity) and regeneration. These advantages of the cyclic structure were analysed by studying a linear, non-cyclic, version of BP2 with regards to its potential to delivery.

rice callus = test: Delivery of dsRed plasmid DNA into rice callus and dsRed expression; assay type: cell-based; details: dsRed plasmid DNA (SEQ ID NO: 1) combined with peptide, after 4 days
Method: CPP (BP100 KH9) and dsRed plasmid DNA (Seq ID NO: 1) or Cy3 labelled PNA (peptide nucleic acid) (1:10 molar ratio) were mixed together and incubated for 30 minutes at 4° C. After incubation the volume was made up to 100 μl with water.
Callus from 5-7 days old rice seeds were used for the experiments. To 10 mg of callus, CPP/DNA or CPP/PNA mixture was added and vacuum infiltrated for 15 mins, washed with distilled water and plated on N6 medium.

Sequence: KKLFKKILKYLHHCRGHTVHSHHHCIR (BP2 amino acid sequence, synthetic) [BP100CH7]
- distribution of Citrine in callus cell (rice callus cells): located in cell membrane and the cytoplasm regions of the cells
- Citrine fluorescence inside of the cells observed, time after infiltration (rice callus cells; 5-day callus cells, P/C ratio of 100): 72 h
- Citrine delivered (5-day callus cell): 0.043 ng/mg callus
- secondary structure ([1]; listed as BP2): higher helix and strand order

Sequence: KKLFKKILKYLHHCRGHTVHSHHHCIR [LH7, linear, non-cyclic version of BP2, reference compound]
- secondary structure [1]: higher degree of unordered structure
- activity in delivery DNA into rice cells (rice cells): significantly lower activity

Sequence: KKLFKKILKYLKHKHKHKHKHKHKHKHKH (BP1 amino acid sequence, synthetic) [BP100 (KH)9]
- distribution of Citrine in callus cell (rice callus cells): located in cell membrane and the cytoplasm regions of the cells
- Citrine fluorescence inside of the cells observed, time after infiltration (rice callus cells; 5-day callus cells, P/C ratio of 1): 72 h
- Citrine fluorescence inside of the cells first observed, time after infiltration (rice callus cells; 5-day callus cells, P/C ratio of 10): 48 h
- Citrine florescence observed, time after infiltration (rice callus cells; 21-day rice callus, P/C ratio of 10): 48 h
- Citrine delivered (5-day callus cell): 0.042 ng/mg callus
- dsRed expression (red fluorescence) (rice callus): visible red fluorescence
- secondary structure [1]: higher helix and strand order

From patent US20250179509A1, “NATIVE DELIVERY OF BIOMOLECULES INTO PLANT CELLS USING IONIC COMPLEXES WITH CELL-PENETRATING PEPTIDES” (BASF Plant Science Company GmbH, priority 2018, published 2025)
